Patent US11845927B2, “Bioremediation using co-metabolism substrates” (Oregon State University, priority 2018, dated 2023)
In brackets after ≈: the same amount, converted by molar mass. Where two headings read alike, the source gives them in different places.

Legend:
[1] = Growth substrates: final OD and % removal of cis-DCE and TCE (Table 1); assay type: cell-based; details: culture grown on the listed substrate
[2] = test system: short chain alkane monoxygenase (SCAM); test: Activity-based labeling (ABL) of SCAM after growth on substrates; assay type: cell-based, Rhodococcus rhodochrous 21198; details: 21198 grown on the substrate
Excerpt: ABL testing was used to identify alcohol growth substrates that induce SCAM expression and activity and result in co-metabolic transformation of contaminants, such as 1,4-D and CAHs.

[3] = Alcohol release from orthosilicates in poisoned control batch reactors; assay type: physicochemical
Excerpt: A slow but gradual rate of O2 consumption was observed, when headspace O2 concentrations are compared to the poisoned controls (FIG. 13). […] T2BOS is not rapidly utilized by 21198 like observed with sBA (FIG. 15), and 2-butanol is released by abiotic hydrolysis. The slow rate of hydrolysis is indicated by the measured 2-butanol concentrations in the poisoned reactor. Over the period of 60 to 125 days approximately 50 μmol of 2-butanol was formed.
Tetraisopropoxysilane (T2POS) is a 2-propanol releasing orthosilicate, similar to TBOS and T2BOS. […] The smaller 2-propanol therefore would be released from T2POS more rapidly than 2-butanol from T2BOS [6], but slower than TBOS. An identical test was performed to those presented for TBOS and T2BOS. The same growth indicators, CO2, O2, and 2-propanol, were tracked throughout the experiment (FIG. 18).

[4] = test system: Rhodococcus rhodochrous 21198; test: Growth cometabolism batch tests of 21198 on 2-butanol or orthosilicate SRCs; assay type: cell-based; details: for first order rate of 1,4-D transformation / first-order rate of 1,1,1-TCA transformation: 21198 grown in the presence of the orthosilicate; for period over which cometabolic transformation of 1,1,1-TCA and 1,4-D was maintained: single addition of the SRC
Method: Growth on 2-butanol was tracked by the production of CO2, the increase in optical density and the consumption of 2-butanol (FIG. 11).
Three additions of 1,1,1-TCA and 1,4-D were made to the two biologically active reactors at 0, 21, and 60 days. […] A third addition of 1,1,1-TCA and 1,4-D was made to the active bottles around day 60.
The same growth cometabolism test performed with T2BOS as an SRC was performed for TBOS (FIGS. 16 and 17).
Tetraisopropoxysilane (T2POS) is a 2-propanol releasing orthosilicate, similar to TBOS and T2BOS. […] An identical test was performed to those presented for TBOS and T2BOS. The same growth indicators, CO2, O2, and 2-propanol, were tracked throughout the experiment (FIG. 18).

[5] = test system: Rhodococcus rhodochrous 21198; test: Resting cell co-metabolic transformation tests with 21198; assay type: cell-based; details: 21198 grown on isobutane, previous batch experiments
[6] = cited from earlier work; for Henry's Constant, Hcc: dimensionless
[7] = test system: Burkholderia vietnamiensis G4; test: Resting cell TCE transformation tests with G4; assay type: cell-based; details: G4 grown on the substrate
Excerpt: This example concerns COC cometabolism by Burkholderia vietnamiensis G4 (G4).

[8] = Abiotic hydrolysis of suspended and encapsulated TBOS and T2BOS; assay type: physicochemical; details: for factor of decrease of hydrolysis rate in encapsulated beads compared to solution: similar masses present
Method: This example concerns abiotic hydrolysis experiments. Batch reactors similar to the CoC transformation reactors were used to determine the rate of hydrolysis of TBOS and T2BOS free suspended in solution and encapsulated at different mass loadings in both alginate and gellan gum. These batch kinetic tests were conducted at a constant 20° C. in 155 mL glass Wheaton bottles sealed with reusable screw on caps fitted with gray butyl rubber septa. Reactors were filled with 100 mL of pH-7 carbonate buffered MSM followed by an addition of free suspended or encapsulated SRCs. The total mass of SRC added to each reactor was dependent on various parameters but ranged from 1000-1500 mg/L. All hydrolysis rates observed here were abiotic hydrolysis rates, which was ensured by the addition of 0.2% (w/v) sodium azide as a microbial poison and typically measurements of respiration data (O2/CO2).
Reactors with TBOS and T2BOS in free suspension at concentrations that replicate encapsulated SRC reactors were created to determine the effect of encapsulation on SRC hydrolysis. Substrate production rates were used as a proxy for SRC hydrolysis, due to the simplicity of substrate analysis. Direct measurements of 1- and 2-butanol in solution were made in order to determine substrate production rates and measurements are presented on a total mass produced basis. Hydrolysis of orthosilicate compounds is acid and base catalyzed and therefore, observed hydrolysis rates are on the low end of what is possible, due to suspension in pH-7 media.
The concentrations of TBOS and T2BOS in solution effects the rate of hydrolysis, and therefore, concentrations of SRCs in abiotic reactors were created to mimic the concentration of SRCs in biotic co-encapsulated reactors, ˜1000-1500 mg/L. Biotic and abiotic reactors were created in unison and monitored alongside one another, though abiotic data have been separated and are presented below. To prevent contamination from occurring over the long duration of these experiments sodium azide, 0.2% (w/v), was added to all abiotic reactors.
Due to the ease of encapsulation of SRCs within alginate, initial abiotic hydrolysis work was conducted using alginate encapsulated TBOS. TBOS was encapsulated in abiotic alginate macro-beads at a mass loading of ˜5% and 30% (w/w). These beads were then added to triplicate reactors, such that the final TBOS concentration in pH-7 carbonate buffered media was kept constant at ˜1000 mg/L; i.e., 2 grams of 5% beads and ⅓ grams of 30% beads were added to 100 mL media solution. […] To illustrate the effect of encapsulation on the hydrolysis rate of TBOS, reactors containing similar concentrations of suspended TBOS were created and monitored alongside encapsulated TBOS reactors.
Total TBOS solution concentrations of ˜1000 mg/Land bead mass loading ˜5 and 30% (w/A). Datapoints are averages between duplicate (suspended) or triplicate (encapsulated) reactors in each treatment and errors bars are 95% confidence intervals. Suspended TBOS reactors were created after encapsulated reactors and therefore, have a shorter total duration of measurements.
The abiotic hydrolysis rate of both TBOS and T2BOS encapsulated in gellan gum was also investigated. Both SRCs were encapsulated in cylindrical gellan macro-beads at mass loadings of ˜8% (w/w). For this work ATCC 21198 was also co-encapsulated within the gellan gum matrix at initial concentrations of ˜0.5 mgTss/g, and an addition of 0.2% (w/v) sodium azide was added as a cellular poison to ensure cells were not alive within the matrix. Biomass was encapsulated because it had been determined that encapsulated SRCs may hydrolyze more quickly with cells present within the encapsulation matrix. Although, the increase in hydrolysis rate was not proven to be from biotic hydrolysis of SRCs and may have been due to the presence of biomass within the matrix allowing more diffusion of water into and butanol out of beads. […]

[9] = cited from earlier work
[10] = abiotic hydrolysis, aqueous alcohol
[11] = Table 15, summary of abiotic hydrolysis rates

Q: With `CCCC(=O)O` [Butyrate] as the compound, how does the “% REMOVAL TCE” value [1] read?
A: 9%

Q: For `CCO` [Ethanol], which “SCAM activity / protein banding pattern” value [2] is on record?
A: not induced

Q: What does the source list for `CC(C)O[Si](OC(C)C)(OC(C)C)OC(C)C` [T2POS, tetraisopropoxysilane]?
A: alcohol production rate in poisoned control [3, 10]: 5.1 µmol/day; first order rate of 1,4-D transformation [4]: 0.24 day⁻¹; first-order rate of 1,1,1-TCA transformation [4]: 0.14 day⁻¹

Q: Which “SCAM activity / protein banding pattern” value [2] does the source give for `CC(C)C` [Isobutane] here?
A: strongest banding pattern

Q: What about the VC transformation rate [5] of the same compound?
A: about 14 μmol/mg TSS/day

Q: And the “Solubility, Sw” value [6]?
A: 48.9 mg/L (≈ 841 µM)

Q: What about the “Henry's Constant, Hcc” value [6] of the same compound?
A: 49.2

Q: Which “TCE transformation by resting cells” value [7] does the source give for `CCCC(=O)OCc1ccccc1` [benzyl butyrate] here?
A: rapidly cometabolized

Q: For `CCCCO[Si](OCCCC)(OCCCC)OCCCC` [TBOS, tetrabutyl orthosilicate], which “alcohol production rate in poisoned control” value [3, 10] is on record?
A: 11 µmol/day

Q: What about the “first order rate of 1,4-D transformation” value [4] of the same compound?
A: 0.76 day⁻¹

Q: And the “first-order rate of 1,1,1-TCA transformation” value [4]?
A: 0.47 day⁻¹

Q: What about the “period over which cometabolic transformation of 1,1,1-TCA and 1,4-D was maintained” value [4] of the same compound?
A: 45 days

Q: And the “Estimated Exhaustion of TBOS” value ([8]; Table 12)?
A: 0.6 years

Q: What about the “Butanol Production Rate” value ([8]; Table 12, 1-butanol, TBOS ~1000 mg/L, pH-7, 20° C.) of the same compound?
A: 5.9 µmol/day

Q: What about the “Estimated Exhaustion of SRS” value ([8]; Table 15) of the same compound?
A: 0.58 years

Q: What about the “Butanol Production Rate” value [8, 11] of the same compound?
A: 5.91 µmol/day

Q: And the “factor of decrease of hydrolysis rate in encapsulated beads compared to solution” value [8]?
A: 10

Q: Which “FINAL OD(550)” value [1] does the source give for `C=CC(C)O` (centres unmarked) [3-buten-2-ol] here?
A: 0.03

Q: For 1-Propanol, which “SCAM activity / protein banding pattern” value [2] is on record?
A: not induced

Q: What about the “% REMOVAL Cis-DCE” value [1] of the same compound?
A: 44%

Q: And the “FINAL OD(550)” value [1]?
A: 0.24

Q: For `C1COCCO1` [1,4-Dioxane], which “Henry's Constant, Hcc” value [6] is on record?
A: 0.000198

Q: With `CC(=O)OCc1ccccc1` [benzyl acetate] as the compound, how does the “TCE transformation by resting cells” value [7] read?
A: slower transformation rates

Q: For `CC(Cl)(Cl)Cl` [1,1,1-Trichloroethane], which “Solubility, Sw” value [6] is on record?
A: 1,290 mg/L

Q: What about the “Henry's Constant, Hcc” value [6] of the same compound?
A: 0.548

Q: Which estimated solubility [9] does the source give for `CCC(C)OC(C)=O` (centres unmarked) [sec-butyl acetate] here?
A: 3520 µg/mL

Q: Which “% REMOVAL TCE” value [1] does the source give for `Oc1ccccc1` [Phenol] here?
A: 100%

Q: What about the “TCE transformation by resting cells” value [7] of the same compound?
A: slower transformation rates

Q: For `C#C` [acetylene, reference compound], which “effect on transformation of 1,1,1-TCA and 1,4-D” value ([4]; acetylene present during growth of 21198 on 2-butanol) is on record?
A: blocked

Q: Which “SCAM activity / protein banding pattern” value [2] does the source give for 1-butanol here?
A: not induced

Q: And the “% REMOVAL Cis-DCE” value [1]?
A: 98%

Q: What about the “% REMOVAL TCE” value [1] of the same compound?
A: 16%

Q: And the “FINAL OD(550)” value [1]?
A: 0.24

Q: What does the source list for `O=C(O)c1ccccc1` [Benzoate]?
A: % REMOVAL Cis-DCE [1]: 84%; % REMOVAL TCE [1]: 6%; FINAL OD(550) [1]: 0.24

Q: Which “% REMOVAL TCE” value [1] does the source give for `OCc1ccccc1` [Benzyl alcohol] here?
A: 100%

Q: What about the “TCE transformation by resting cells” value [7] of the same compound?
A: rapidly cometabolized

Q: With `CC(C)O` [2-propanol] as the compound, how does the “SCAM activity / protein banding pattern” value [2] read?
A: faint banding pattern

Q: Which results are given for `CC=CCO` [2-buten-1-ol]?
A: % REMOVAL Cis-DCE [1]: 67%; % REMOVAL TCE [1]: 20%; FINAL OD(550) [1]: .023

Q: Which “SCAM activity / protein banding pattern” value [2] does the source give for 2-butanol here?
A: observed

Q: Which “% REMOVAL Cis-DCE” value [1] does the source give for `C=CCCO` [3-buten-1-ol] here?
A: 89%

Q: And the “% REMOVAL TCE” value [1]?
A: 21%

Q: What about the “FINAL OD(550)” value [1] of the same compound?
A: .022

Q: With `CC(=O)O` [Acetate] as the compound, how does the “% REMOVAL Cis-DCE” value [1] read?
A: 73%

Q: And the “FINAL OD(550)” value [1]?
A: 0.33

Q: And the “TCE transformation by resting cells” value [7]?
A: Slow rates

Q: Which results are given for `CCC(C)O[Si](OC(C)CC)(OC(C)CC)OC(C)CC` (centres unmarked) [T2BOS, tetra-sec-butyl orthosilicate]?
A: 2-butanol production rate in poisoned control [3, 10]: 0.76 µmol/day; 2-butanol formed in poisoned reactor ([3]; over the period of 60 to 125 days, T2BOS 1500 mg/L): approximately 50 μmol; first order rate of 1,4-D transformation [4]: 0.04 day⁻¹; first-order rate of 1,1,1-TCA transformation [4]: 0.037 day⁻¹; period over which cometabolic transformation of 1,1,1-TCA and 1,4-D was maintained [4]: 125 days; estimated solubility [9]: 6.8 µg/mL; estimated solubility ([9]; listed as tetra-sec-butyl orthosilicate): 3.8 µg/mL; Estimated Exhaustion of T2BOS ([8]; Table 13): 12.9 years; Butanol Production Rate ([8]; Table 13, SRC ~1500 mg/L, pH-7): 0.40 µmol/day; Estimated Exhaustion of TBOS ([8]; Table 14): 12.9 years; Butanol Production Rate ([8]; Table 14, SRC 1500 mg/l): 0.40 µmol/day; Estimated Exhaustion of SRS ([8]; Table 15): 12.9 years; Butanol Production Rate [8, 11]: 0.40 µmol/day; factor of decrease of hydrolysis rate in encapsulated beads compared to solution [8]: 10
